From patent US12544375B2, “Small molecule therapeutic for parkinson's disease paired with a biomarker of therapeutic activity” (The Board of Trustees of the Leland Stanford Junior …, priority 2019, dated 2026)

Tests used:
Miro2 = target: T1, Miro2 (Homo sapiens, UniProt Q8IXI1); assay: Miro2 response to CCCP in fibroblasts, Western blotting; format: cell-based; conditions: healthy or PD cells, CCCP 6 hrs
T1 construct: Miro1 Reducer had no influence on Miro2 in either healthy or PD cells; endogenous in cells; host or cells: human skin fibroblasts (Healthy-1, PD-2)
Procedure: (§1) FIG. 2A-FIG. 2F. Miro1 Reducer Eliminates the Miro1 Defect in PD Fibroblasts. (FIG. 2A) Chemical properties of Miro1 Reducer. (FIG. 2B) Wild-type flies (w^1118) were fed with DMSO alone (0 μM Miro1 Reducer) or Miro1 Reducer in DMSO at 250 μM for 7 days, and lysed and blotted as indicated. The band intensities are normalized to those of Tubulin from the same blots. n=4. (FIG. 2C-FIG. 2E) Fibroblasts were treated, lysed, and blotted as indicated. (FIG. 2C) Band intensities are normalized to those of GAPDH from the same blots and compared to “Healthy-1, no treatment” except otherwise indicated. n=4. (FIG. 2D) Band intensities are normalized to those of ATP5β from the same blots and expressed as a percentage of the mean of “0 μM Miro1 Reducer with CCCP”. Mean±S.E.M is shown. n=3. (FIG. 2E) Band intensities are normalized to those of GAPDH from the same blots and compared to “Healthy-1, no CCCP, no MG132” except otherwise indicated. n=4. (FIG. 2F) Healthy-1 and PD-2 fibroblasts were transfected as indicated, and immunostained with anti-Myc (Miro1, green) and stained with Dapi (blue). The Miro1 intensity is normalized to that of mito-dsRed from the same cell and quantified across 37-62 cells from 5 fields each transfection, 3 independent transfections. Scale bars: 50 μm. For (FIG. 2C-FIG. 2F), both CCCP and Miro1 Reducer were dissolved in DMSO. […]

OPA1 = OPA1 level in fibroblasts, Western blotting; format: cell-based, human; conditions: FIG. 2D
Procedure: as §1

fibroblasts = assay: Cytotoxicity: mitochondrial matrix and cytosolic proteins in fibroblasts with CCCP; format: cell-based, human; conditions: combined with CCCP treatment for 6 hrs
Procedure: as §1

T1 sequence (Q8IXI1 whole entry): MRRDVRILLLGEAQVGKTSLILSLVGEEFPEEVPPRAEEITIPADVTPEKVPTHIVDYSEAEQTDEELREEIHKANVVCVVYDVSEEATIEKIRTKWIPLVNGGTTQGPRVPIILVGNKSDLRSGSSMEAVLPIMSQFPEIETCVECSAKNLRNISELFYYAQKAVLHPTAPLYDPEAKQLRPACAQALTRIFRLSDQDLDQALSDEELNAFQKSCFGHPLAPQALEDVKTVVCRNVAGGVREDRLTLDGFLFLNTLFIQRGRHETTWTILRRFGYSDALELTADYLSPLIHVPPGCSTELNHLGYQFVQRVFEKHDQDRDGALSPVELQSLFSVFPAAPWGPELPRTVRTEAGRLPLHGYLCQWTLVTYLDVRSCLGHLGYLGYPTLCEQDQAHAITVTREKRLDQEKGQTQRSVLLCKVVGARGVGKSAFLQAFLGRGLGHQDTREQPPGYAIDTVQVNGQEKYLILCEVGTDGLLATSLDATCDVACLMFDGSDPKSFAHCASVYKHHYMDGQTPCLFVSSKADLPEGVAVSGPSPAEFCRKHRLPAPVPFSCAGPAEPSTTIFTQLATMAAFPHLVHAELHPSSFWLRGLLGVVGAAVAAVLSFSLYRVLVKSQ

## O=C(Nc1ccc(Nc2cc(-n3ccnc3)ncn2)cc1)Nc1cccc(F)c1 [Miro1 Reducer]
Miro2
  influence on Miro2: no influence
OPA1
  IMM dynamin GTPase OPA1 level: not reduced
fibroblasts
  concentrations impacting multiple mitochondrial matrix and cytosolic proteins, indicating cytotoxicity: > 25 µM
